These results are taken from patent US20260347355A1, “COMPOUNDS” (Hoffmann-La Roche Inc., priority 2023, published 2026).

Series [1] addresses T1, human ether-i-go-go-related gene (hERG) cardiac potassium channel (Homo sapiens, UniProt Q12809).
T1 construct: whole-cell automated patch clamp, SynchroPatch 384, 35-37 °C
The series can be described thus: hERG screening assay (automated patch clamp, CHO crelox hERG cells). It counts as cell-based. The conditions noted are these: SynchroPatch 384, 35-37 °C, 0.1 Hz, read-out: hERG inhibition IC20. The source says:
In the drug development process of small molecules, one of the most frequent adverse side effects, leading to the failure of drugs, is the cardiac arrhythmias. Such failure is often related to the capacity of the drug to inhibit the human ether-i-go-go-related gene (hERG) cardiac potassium channel. Having no or low inhibition of the hERG cardiac potassium channel is therefore considered as beneficial.
The CHO crelox hERG cell line (ATCC reference Nr. PTA-6812, female Chinese hamster cells) was generated and validated at Roche. Ready-to-use frozen instant CHO-hERG cells were cryopreserved at Evotec (Germany) and used directly in the experiments.
The extracellular solution contains (in mM): NaCl 150; KCl 4; CaCl2 1; MgCl2 1; HEPES 10; pH 7.2-7.4 with NaOH, osmolarity 290-330 mOsm. […]
The effects of a compound on hERG K+-currents parameters will be evaluated at 2 concentrations in at least 4 cells.
The hERG test is performed using automated patch clamp system SynchroPatch® 384 (Nanion Technologies GmbH, Germany). K+ currents are measured with the patch-voltage-clamp technique in the whole-cell configuration at 35-37 °C. […]
The amplitudes of IKhERG were recorded in each concentration of drug and they were compared to the vehicle control values (taken as 100%) to define fractional blocks. […]
(In general: Block of hERG is tested as a sign of cardiac risk.)

A further series relates to CAPS. The conditions noted are these: biologic agents that target IL-1; cited from earlier work.
Series [2] has as its target T2, NLRP3 (Homo sapiens, UniProt Q96P20). Kind of series: THP-1 cells pyroptosis assay (LPS primed, nigericin stimulated, resazurin readout). The conditions noted are these: THP-1 pyroptosis Assay IC50, THP-1 cells, 1 μg/ml LPS, 5 μM nigericin, 3 h compound pre-incubation. It counts as cell-based. Also noted: endogenous in cells; host or cells: THP-1 cells (ATCC TIB-202). The method, then: Therefore, it is anticipated that inhibitors of NLRP3 will block pyroptosis, as well as the release of pro-inflammatory cytokines (e.g. IL-1β) from the cell.
THP-1 Cells: Culture and Preparation
The cells were routinely passaged and grown to confluency (~10^6cells/ml). On the day of the experiment, THP-1 cells were harvested and resuspended into RPMI medium (without FBS). […] To this diluted cell solution was added LPS (Sigma #L4524) to give a 1 μg/ml Final Assay Concentration (FAC). 40 μl of the final preparation was aliquoted into each well of a 96-well plate. The plate thus prepared was used for compound screening.
THP-1 Cells Pyroptosis Assay
The following method step-by-step assay was followed for compound screening.
(§1) Incubate for 3 hours at 37 °C, 5% CO2
Add 5 μl nigericin (Sigma #N7143) (FAC 5 μM) to all wells
(§2) Incubate for 1 hr at 37 °C, 5% CO2
At the end of the incubation period, spin plates at 300×g for 3 mins and remove supernatant
Then add 50 μl of resazurin (Sigma #R7017) (FAC 100 μM resazurin in RPMI medium without FBS) and incubate plates for a further 1-2 hours at 37 °C and 5% CO2
(§3) IC50 data is fitted to a non-linear regression equation (log inhibitor vs response-variable slope 4-parameters)
Background: The colour change of resazurin is a common sign of viable cells or microbes.

Series [3] deals with T2, NLRP3. The series can be described thus: Human whole blood IL-1β release assay (LPS, nigericin; AlphaLISA). In kind it is cell-based. Also on record: Human whole blood in Li-heparin tubes was obtained from healthy donors from a volunteer donor panel; from tissue; host or cells: human whole blood from healthy volunteer donors. To be noted: 1 μg/ml LPS, 10 μM nigericin, 3 h compound pre-incubation. The method, then:
Human Whole Blood IL-1β Release Assay
For systemic delivery, the ability to inhibit NLRP3 when the compounds are present within the bloodstream is of great importance. For this reason, the NLRP3 inhibitory activity of a number of compounds in human whole blood was investigated in accordance with the following protocol.
Human whole blood in Li-heparin tubes was obtained from healthy donors from a volunteer donor panel.
as §1
Add 10 μl nigericin (Sigma #N7143) (10 μM FAC) to all wells
as §2
At the end of the incubation period, spin plates at 300×g for 5 mins to pellet cells and remove 20 μl of supernatant and add to 96-well v-bottom plates for IL-1β analysis (note: these plates containing the supernatants can be stored at −80 °C to be analysed at a later date)
IL-1β was measured according to the manufacturer protocol (Perkin Elmer-AlphaLisa IL-1 Kit AL220F-5000)
as §3

Another series concerns NLRC4. The conditions noted are these: cited from earlier work.
The test system of another series is NLRP1. To be noted: cited from earlier work.
Series [4] addresses T2, NLRP3. Also noted: THP-1 cells (ATCC #TIB-202) were grown in RPMI; endogenous in cells; host or cells: THP-1 cells (ATCC TIB-202). To be noted: cited from earlier work.

T2 sequence (Q96P20 whole entry): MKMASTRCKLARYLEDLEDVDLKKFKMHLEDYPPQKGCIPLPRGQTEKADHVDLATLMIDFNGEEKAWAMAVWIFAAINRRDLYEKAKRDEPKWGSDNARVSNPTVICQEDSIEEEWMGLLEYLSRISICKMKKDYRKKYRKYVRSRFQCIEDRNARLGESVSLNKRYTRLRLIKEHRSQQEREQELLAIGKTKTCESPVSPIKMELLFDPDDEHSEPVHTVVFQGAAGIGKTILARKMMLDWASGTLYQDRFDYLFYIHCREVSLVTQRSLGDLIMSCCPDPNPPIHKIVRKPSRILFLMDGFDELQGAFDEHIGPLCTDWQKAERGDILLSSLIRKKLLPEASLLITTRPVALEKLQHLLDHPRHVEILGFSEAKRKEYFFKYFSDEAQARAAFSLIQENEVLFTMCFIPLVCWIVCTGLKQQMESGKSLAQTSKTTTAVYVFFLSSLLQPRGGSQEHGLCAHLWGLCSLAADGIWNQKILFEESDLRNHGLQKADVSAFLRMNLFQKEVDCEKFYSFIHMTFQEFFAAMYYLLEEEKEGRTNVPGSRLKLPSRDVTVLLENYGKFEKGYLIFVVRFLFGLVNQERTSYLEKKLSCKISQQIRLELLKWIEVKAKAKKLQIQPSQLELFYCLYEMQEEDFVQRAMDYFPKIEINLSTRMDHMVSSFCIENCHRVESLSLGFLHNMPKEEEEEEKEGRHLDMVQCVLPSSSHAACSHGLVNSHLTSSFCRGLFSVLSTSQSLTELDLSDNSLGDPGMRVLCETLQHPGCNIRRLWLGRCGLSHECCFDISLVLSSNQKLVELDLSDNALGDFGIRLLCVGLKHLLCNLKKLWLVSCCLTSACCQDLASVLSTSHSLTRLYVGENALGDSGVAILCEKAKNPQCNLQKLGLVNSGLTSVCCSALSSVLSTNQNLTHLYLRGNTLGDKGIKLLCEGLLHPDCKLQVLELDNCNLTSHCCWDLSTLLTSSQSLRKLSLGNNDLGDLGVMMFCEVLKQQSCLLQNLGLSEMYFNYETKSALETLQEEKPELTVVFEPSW
T1 sequence (Q12809 whole entry): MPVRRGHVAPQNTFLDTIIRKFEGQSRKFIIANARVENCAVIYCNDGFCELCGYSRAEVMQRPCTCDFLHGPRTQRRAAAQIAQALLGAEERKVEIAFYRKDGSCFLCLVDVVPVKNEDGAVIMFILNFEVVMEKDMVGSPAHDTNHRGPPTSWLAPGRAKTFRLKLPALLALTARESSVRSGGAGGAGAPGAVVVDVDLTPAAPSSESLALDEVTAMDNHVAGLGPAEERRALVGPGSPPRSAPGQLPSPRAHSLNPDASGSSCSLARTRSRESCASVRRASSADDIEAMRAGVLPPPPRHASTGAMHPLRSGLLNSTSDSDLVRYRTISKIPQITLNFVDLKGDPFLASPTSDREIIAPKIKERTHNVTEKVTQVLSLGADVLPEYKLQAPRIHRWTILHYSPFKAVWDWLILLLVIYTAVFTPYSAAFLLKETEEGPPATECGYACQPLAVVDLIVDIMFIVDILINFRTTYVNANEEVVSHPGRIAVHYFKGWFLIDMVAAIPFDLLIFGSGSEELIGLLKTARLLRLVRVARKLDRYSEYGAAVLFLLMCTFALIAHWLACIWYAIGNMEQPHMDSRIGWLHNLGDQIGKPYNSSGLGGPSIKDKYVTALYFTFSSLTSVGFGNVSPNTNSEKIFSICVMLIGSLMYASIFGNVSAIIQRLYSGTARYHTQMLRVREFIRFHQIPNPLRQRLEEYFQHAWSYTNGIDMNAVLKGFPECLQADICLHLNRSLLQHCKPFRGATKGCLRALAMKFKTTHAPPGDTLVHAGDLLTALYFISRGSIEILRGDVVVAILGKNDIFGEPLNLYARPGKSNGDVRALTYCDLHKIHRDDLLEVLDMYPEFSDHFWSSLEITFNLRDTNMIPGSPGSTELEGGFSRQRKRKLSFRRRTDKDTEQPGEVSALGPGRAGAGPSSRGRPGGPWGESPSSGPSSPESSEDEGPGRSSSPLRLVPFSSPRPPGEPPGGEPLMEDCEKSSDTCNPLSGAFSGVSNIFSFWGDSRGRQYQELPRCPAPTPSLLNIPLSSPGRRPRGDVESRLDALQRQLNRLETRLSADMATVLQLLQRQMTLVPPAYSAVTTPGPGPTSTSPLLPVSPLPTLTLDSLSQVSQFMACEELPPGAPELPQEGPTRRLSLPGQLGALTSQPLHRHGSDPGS

For `Oc1c(-c2nnc(N[C@@H]3CCOC[C@@H]3O)c3cnccc23)ccc2c1CCO2` [Example 15, 5-[4-[[(3R,4R)-3-Hydroxytetrahydropyran-4-yl]amino]pyrido[3,4-d]pyridazin-1-yl]-2,3-dihydrobenzofuran-4-ol], in series [1], the IC20 is > 10000 nM. Consider rilonacept, for which the “success in the treatment of CAPS” value in the series with CAPS was “proven successful in the treatment of CAPS”. Compound `Fc1c[nH]c2cc(-c3nnc(NCC4CCOC4)c4cnccc34)ccc12` (single isomer, unassigned) [Example 4B] came in with a 50% inhibitory concentration (IC50) at NLRP3 [2] of 211 nM. Consider `Oc1c(-c2nnc(N[C@H]3CC[C@H](O)CC3)c3cnccc23)ccc2c1CCO2` [Example 9, trans-5-[4-[(4-Hydroxycyclohexyl)amino]pyrido[3,4-d]pyridazin-1-yl]-2,3-dihydrobenzofuran-4-ol], for which the IC50 against NLRP3 [2] stood at 56 nM; on NLRP3 [3], 43 nM. Regarding `Oc1c(-c2nnc(NCC3CCOC3)c3cnccc23)ccc2c1CCO2` (single isomer, unassigned) [Example 5A], the IC50 on NLRP3 [2] worked out at 29 nM; at NLRP3 [3], 32 nM. As to `COc1ccc(Cl)cc1C(=O)NCCc1ccc(S(=O)(=O)NC(=O)NC2CCCCC2)cc1` [Glyburide], in the series on NLRC4, the “inhibition of IL-1β production in response to the activation of NLRC4” value was “not NLRC4”. For the same compound, the “inhibition of IL-1β production in response to the activation of NLRP1” value in the series with NLRP1 is “not NLRC4 or NLRP1”.

As to `Oc1c(-c2nnc(NCC3CCCO3)c3cnccc23)ccc2c1CCO2` (single isomer, unassigned) [Example 6B], the IC50 is 63 nM on NLRP3 [2] and 59 nM against NLRP3 [3]. With `Oc1c(-c2nnc(NCC3CCOC3)c3cnccc23)ccc2c1CCO2` (racemic) [Example 5, 5-[4-[[rac-(3S)-Tetrahydrofuran-3-yl]methylamino]pyrido[3,4-d]pyridazin-1-yl]-2,3-dihydrobenzofuran-4-ol], the IC50 on NLRP3 [2] was 38 nM; against NLRP3 [3], 37 nM.

As to `Oc1c(-c2nnc(N[C@H]3CCCC[C@@H]3O)c3cnccc23)ccc2c1CCO2` (relative stereo) [Example 2B, 5-[4-[[rel-(1S,2S)-2-Hydroxycyclohexyl]amino]pyrido[3,4-d]pyridazin-1-yl]-2,3-dihydrobenzofuran-4-ol], in series [1], the concentration for an effect of 20% (IC20) was > 10000 nM.

In the case of `O[C@@H]1CCCC[C@H]1Nc1nnc(-c2ccc3cc[nH]c3c2)c2ccncc12` (racemic) [Example 3, rac-(1R,2R)-2-[[1-(1H-Indol-6-yl)pyrido[3,4-d]pyridazin-4-yl]amino]cyclohexanol], the IC50 stood at 99 nM against NLRP3 [2] and 108 nM at NLRP3 [3]. For `Oc1c(-c2nnc(NCC3CCOC3)c3cnccc23)ccc2c1CCO2` (single isomer, unassigned) [Example 5B] the same measures were 64 nM and 36 nM. On to “canakinumab: neutralizing IL-1β antibody”, for which the “success in the treatment of CAPS” value in the series with CAPS is given as “proven successful in the treatment of CAPS”. Take `Oc1c(-c2nnc(N[C@H]3CC[C@@H](O)CC3)c3cnccc23)ccc2c1CCO2` [Example 11, cis-5-[4-[(4-Hydroxycyclohexyl)amino]pyrido[3,4-d]pyridazin-1-yl]-2,3-dihydrobenzofuran-4-ol]: the figures for the concentration for half-maximal inhibition (IC50) on NLRP3 [2] and at NLRP3 [3] were 57 nM and 51 nM, respectively. Consider `Oc1c(-c2nnc(NCC3CCCO3)c3cnccc23)ccc2c1CCO2` (single isomer, unassigned) [Example 6A], for which the IC50 against NLRP3 [2] is 58 nM; against NLRP3 [3] it was 47 nM.

Turning to `O=[N+]([O-])C=Cc1ccc2c(c1)OCO2` [3,4-methylenedioxy-β-nitrostyrene], at NLRP3 [4], the “NLRP3 inhibition, potency” value was “limited potency” and the “NLRP3 inhibition, specificity” value was “nonspecific”. As for `C[S+](C)[O-]` [dimethyl sulfoxide (DMSO), dimethyl sulfoxide], on NLRP3 [4], the “NLRP3 inhibition, potency” value was “limited potency” and the “NLRP3 inhibition, specificity” value was “nonspecific”. `Fc1c[nH]c2cc(-c3nnc(NCC4CCOC4)c4cnccc34)ccc12` (single isomer, unassigned) [Example 4A] gave an IC50 against NLRP3 [2] of 134 nM. The compound `COCc1cc2c(c(O)c1-c1nnc(N[C@@H]3CCCC[C@H]3O)c3cnccc13)CCO2` [Example 8, 5-[4-[[(1R,2R)-2-Hydroxycyclohexyl]amino]pyrido[3,4-d]pyridazin-1-yl]-6-(methoxymethyl)-2,3-dihydrobenzofuran-4-ol] showed an IC50 against NLRP3 [2] of 21 nM. Take “anakinra: recombinant IL-I receptor antagonist”: the “success in the treatment of CAPS” value in the series on CAPS is given as “proven successful in the treatment of CAPS”. In the case of `C=C1C(=O)O[C@@H]2[C@H]3O[C@]3(C)CC/C=C(\C)CC[C@@H]12` [parthenolide], on NLRP3 [4], the “NLRP3 inhibition, potency” value is on record as “limited potency” and the “NLRP3 inhibition, specificity” value is listed as “nonspecific”.

What is called IC20 is the point of the concentration-response curve where the effect stands at 20%. For orientation: IC50 means the concentration that inhibits the measured activity by half. A higher IC50 goes with weaker potency.
